For one assay, the system named is C57BL/6N mice. Kind of assay: Feeding suppressant activity on a high-fat diet. Format: in vivo. Conditions: male C57BL/6N mice, oral dose of 3 mg/kg; food intake 6 hours after initiation of high-fat diet feeding. The protocol:
Male C57BL/6N mice (7-12 weeks old, body weight: 17-25 g, Charles River Laboratories Japan Inc.) were individually housed and fed on a high-fat diet (fat content: 45 kcal %: Research Diets, Inc. D12451) for 1 week or longer for acclimatization. Based on the food intake during the period, the animals were equally assigned to experimental groups and fasted overnight. Then, a vehicle (0.5% methylcellulose) or each test compound (1 to 10 mg/kg) suspended in vehicle was orally administered (10 mL/kg) to each group. 30 minutes after administration, the animals were fed on a high-fat diet, and the food intake was measured 6 hours after initiation of feeding. The feeding suppressant activity of each test compound was calculated based on the equation shown below.
Feeding suppressant activity(%)=[(Food intake of Vehicle group)−(Food intake of each test compound group)]/[(Food intake of Vehicle group)]×100

Another assay has as its target T1, DGAT1 enzyme (Homo sapiens, UniProt O75907).
T1 construct: made in house
T1 sequence (O75907 1-488): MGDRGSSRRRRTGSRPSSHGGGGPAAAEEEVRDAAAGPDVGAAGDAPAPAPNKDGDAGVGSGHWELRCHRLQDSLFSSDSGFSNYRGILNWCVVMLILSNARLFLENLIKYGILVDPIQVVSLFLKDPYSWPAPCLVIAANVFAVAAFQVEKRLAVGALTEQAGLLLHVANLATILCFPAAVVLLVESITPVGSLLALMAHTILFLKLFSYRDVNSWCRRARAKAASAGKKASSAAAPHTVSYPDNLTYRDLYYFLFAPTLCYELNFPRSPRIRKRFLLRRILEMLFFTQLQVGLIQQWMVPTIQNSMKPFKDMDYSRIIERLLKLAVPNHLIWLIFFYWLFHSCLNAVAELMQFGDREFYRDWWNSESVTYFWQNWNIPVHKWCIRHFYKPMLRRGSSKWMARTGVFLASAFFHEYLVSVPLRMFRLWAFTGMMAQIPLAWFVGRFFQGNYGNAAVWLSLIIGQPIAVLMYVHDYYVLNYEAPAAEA
Kind of assay: DGAT1 inhibitory activity test. Format: biochemical. Conditions: test compound concentration of 0.05 μg/ml; [14C]-oleoyl-CoA, 23° C., 30 minutes; read-out: Inhibitory Rate. Here is the method:
(1) Preparation of DGAT1 Enzyme
DGAT1 enzyme was prepared and stored according to the method described in US2007/0249620.
(2) DGAT1 Inhibitory Activity Test
A reaction solution having the following composition was incubated at room temperature (23° C.) for 30 minutes: 175 mM Tris-HCl (pH 8.0), 8 mM MgCl2, 1 mg/ml BSA, 0.3 mM 1,2-dioleoyl-sn-glycerol (10-fold concentration of EtOH solution, 10% added), 10 μM [^14C]-oleoyl-CoA (approximately 50 mCi/mmol), 0.5% Triton X-100, the DGAT1 enzyme (10 μg) obtained in Test Example 1(1), and a test compound or vehicle (DMSO/MeOH, 7:3 solution, 5% added), 50 μl in total. A reaction stop solution […] consisting of isopropanol/1-heptane/water (80:20:2, v/v/v) was added to the reaction solution and stirred. Subsequently, water […] and 1-heptane (100 μl) were added thereto and stirred. The 1-heptane layer […] was spotted onto a TLC plate and developed with a developing solvent consisting of 1-hexane/diethyl ether/acetic acid (85:15:1, v/v/v). The radioactivity of the triglyceride fraction was quantified using BAS2500 Bio Image Analyzer (FUJIFILM) and compared with the control. The inhibitory activity of the test compound was calculated according to the formula shown below. In this context, the radioactivity at no reaction (0 minute incubation) was used as background.
Inhibitory Rate=100−[(Radioactivity of sample supplemented with test compound)−(Background)]/[(Radioactivity of control)−(Background)]×100

The structures appear in SMILES notation.

In the assay with C57BL/6N mice, `O=C(O)C[C@H]1CC[C@H](OC(=O)N2CCc3cc(NC(=O)Nc4ccccc4Cl)ccc3C2)CC1` [Example 2, trans-6-[3-(2-chloro-phenyl)-ureido]-3,4-dihydro-1H-isoquinoline-2-carboxylic acid 4-carboxymethyl-cyclohexyl ester] returned a Feeding suppressant activity of 70%. Moreover, on DGAT1 enzyme, the inhibition at 0.05 µg/mL is ≥ 50%.

The record behind these values is US20120202847A1, “Novel Tetrahydroisoquinoline Compounds” (priority 2009, published 2012).
